Experimental data published in ChEMBL document CHEMBL4354805, “Discovery of MK-8719, a Potent O-GlcNAcase Inhibitor as a Potential Treatment for Tauopathies” (J Med Chem, 2019).

Assays:
[1] = Oral bioavailability in Wistar Han rat at 3 mg/kg; assay type: ADME, organism-based; conditions: in vivo
Protein O-GlcNAcase [2] = biological target: T1, Protein O-GlcNAcase (Homo sapiens, UniProt O60502); assay: Inhibition of recombinant human OGA
T1 sequence (O60502 whole entry): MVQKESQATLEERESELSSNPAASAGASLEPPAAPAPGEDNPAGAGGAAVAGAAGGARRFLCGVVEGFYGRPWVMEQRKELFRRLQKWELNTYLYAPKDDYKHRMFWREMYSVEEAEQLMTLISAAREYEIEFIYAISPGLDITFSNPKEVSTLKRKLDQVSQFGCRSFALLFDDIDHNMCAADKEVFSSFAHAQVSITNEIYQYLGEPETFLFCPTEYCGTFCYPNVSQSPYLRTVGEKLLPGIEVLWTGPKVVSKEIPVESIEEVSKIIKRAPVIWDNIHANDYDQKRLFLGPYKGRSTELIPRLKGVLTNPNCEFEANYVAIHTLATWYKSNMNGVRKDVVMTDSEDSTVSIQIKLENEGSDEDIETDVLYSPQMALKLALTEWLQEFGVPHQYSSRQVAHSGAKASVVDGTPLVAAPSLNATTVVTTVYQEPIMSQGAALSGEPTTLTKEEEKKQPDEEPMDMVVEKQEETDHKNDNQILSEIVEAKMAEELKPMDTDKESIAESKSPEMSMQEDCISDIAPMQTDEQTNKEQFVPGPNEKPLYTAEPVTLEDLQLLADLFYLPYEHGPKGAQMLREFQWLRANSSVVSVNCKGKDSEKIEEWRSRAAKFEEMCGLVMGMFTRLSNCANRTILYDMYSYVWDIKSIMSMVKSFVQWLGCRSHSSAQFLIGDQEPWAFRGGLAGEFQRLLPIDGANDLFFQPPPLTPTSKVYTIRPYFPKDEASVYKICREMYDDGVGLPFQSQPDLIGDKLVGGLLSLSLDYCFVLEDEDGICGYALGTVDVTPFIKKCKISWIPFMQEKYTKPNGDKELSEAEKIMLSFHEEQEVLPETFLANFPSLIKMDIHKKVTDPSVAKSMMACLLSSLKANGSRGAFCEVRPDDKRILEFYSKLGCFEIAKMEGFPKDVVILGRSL

[3] = biological target: T2, Beta-hexosaminidase subunit beta (Homo sapiens, UniProt P07686); assay: Inhibition of human beta hexosaminidase assessed as inhibitory constant using 4-methylumbelliferyl N-acetyl-beta-D-glucosaminide dihydrate as substrate measured every 60 sec for 45 mins by fluorescence spectrophotometry
T2 sequence (P07686 whole entry): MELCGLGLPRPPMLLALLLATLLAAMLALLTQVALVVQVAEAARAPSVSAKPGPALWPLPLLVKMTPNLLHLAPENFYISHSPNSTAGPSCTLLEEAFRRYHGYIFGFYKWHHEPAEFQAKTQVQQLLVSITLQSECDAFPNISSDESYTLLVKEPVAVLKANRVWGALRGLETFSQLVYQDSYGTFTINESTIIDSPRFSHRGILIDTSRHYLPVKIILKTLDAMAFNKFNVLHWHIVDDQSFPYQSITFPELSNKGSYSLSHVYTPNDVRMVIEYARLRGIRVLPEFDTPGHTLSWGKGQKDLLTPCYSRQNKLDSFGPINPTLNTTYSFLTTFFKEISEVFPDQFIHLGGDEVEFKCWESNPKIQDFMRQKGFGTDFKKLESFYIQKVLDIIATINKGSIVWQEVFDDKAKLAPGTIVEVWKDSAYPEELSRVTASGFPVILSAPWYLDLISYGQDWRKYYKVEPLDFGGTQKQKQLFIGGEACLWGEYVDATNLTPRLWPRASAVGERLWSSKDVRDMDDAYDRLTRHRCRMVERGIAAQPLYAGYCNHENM

[4] = Drug uptake in rat brain at 3 mg/kg, po measured after 8 hrs; assay type: ADME, organism-based; conditions: in vivo
[5] = AUCN in Wistar Han rat at 3 mg/kg, po; assay type: ADME, organism-based; conditions: in vivo
Protein O-GlcNAcase [6] = biological target: T3, Protein O-GlcNAcase (Rattus norvegicus, UniProt Q8VIJ5); assay: Inhibition of OGA in rat PC12 cells assessed as OGlcNAcylated protein level incubated for 24 hrs by ELISA; assay type: cell-based
T3 sequence (Q8VIJ5 whole entry): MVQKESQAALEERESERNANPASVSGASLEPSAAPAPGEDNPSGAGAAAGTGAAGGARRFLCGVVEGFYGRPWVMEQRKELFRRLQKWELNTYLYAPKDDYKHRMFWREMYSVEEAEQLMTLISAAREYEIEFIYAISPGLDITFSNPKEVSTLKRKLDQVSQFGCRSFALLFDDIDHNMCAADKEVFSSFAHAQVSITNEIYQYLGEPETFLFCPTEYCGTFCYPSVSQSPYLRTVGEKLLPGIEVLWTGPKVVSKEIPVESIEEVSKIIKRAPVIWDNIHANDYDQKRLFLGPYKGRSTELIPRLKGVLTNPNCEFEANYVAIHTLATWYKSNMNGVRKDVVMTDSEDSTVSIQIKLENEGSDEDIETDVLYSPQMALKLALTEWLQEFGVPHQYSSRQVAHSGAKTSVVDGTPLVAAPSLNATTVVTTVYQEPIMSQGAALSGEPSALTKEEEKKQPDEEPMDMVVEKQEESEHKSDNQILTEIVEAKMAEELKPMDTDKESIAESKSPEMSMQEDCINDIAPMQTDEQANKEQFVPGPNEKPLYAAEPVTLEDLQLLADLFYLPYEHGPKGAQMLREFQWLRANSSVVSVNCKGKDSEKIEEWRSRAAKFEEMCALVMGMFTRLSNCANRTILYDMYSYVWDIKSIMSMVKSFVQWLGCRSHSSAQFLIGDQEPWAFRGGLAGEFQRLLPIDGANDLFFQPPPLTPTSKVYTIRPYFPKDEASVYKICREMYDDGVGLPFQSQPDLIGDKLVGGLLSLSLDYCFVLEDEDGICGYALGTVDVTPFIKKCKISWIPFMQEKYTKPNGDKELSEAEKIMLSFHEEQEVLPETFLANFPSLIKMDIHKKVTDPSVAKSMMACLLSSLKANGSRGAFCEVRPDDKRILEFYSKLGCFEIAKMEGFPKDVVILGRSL

[7] = Ratio of drug uptake in rat brain to plasma at 3 mg/kg, po measured after 8 hrs; assay type: ADME, organism-based; conditions: read-out: BPR
[8] = Drug uptake in rat brain at 3 mg/kg, po measured after 24 hrs; assay type: ADME, organism-based; conditions: in vivo
[9] = AUC (0 to 24 hrs) in rat brain at 10 mg/kg, po measured upto 24 hrs; assay type: ADME, organism-based; design: dose 10 mg/kg, time < 24 hr, route oral; conditions: in vivo
MDR1 = assay: Apparent permeability in pig LLC-PK1 cells transfected with MDR1; assay type: ADME, cell-based, Sus scrofa
[10] = Volume of distribution at steady state in Wistar Han rat at 2 mg/kg, iv or 3 mg/kg, po; assay type: ADME, organism-based; conditions: in vivo, read-out: Vdss
Rattus norvegicus [11] = assay: Elevation of O-protein in rat brain at 3 mg/kg, po measured after 8 hrs relative to control; assay type: functional
[12] = Fraction unbound in human plasma at 2.5 uM by equilibrium dialysis; assay type: ADME, cell-free
Rattus norvegicus [13] = assay: Increase in O-protein AUC in rat brain at 10 mg/kg, po measured upto 24 hrs; assay type: ADME, organism-based; conditions: in vivo
[14] = Tmax in rat brain at 10 mg/kg, po measured upto 24 hrs; assay type: ADME, organism-based
[15] = Fraction unbound in Wistar Han rat plasma at 2.5 uM by equilibrium dialysis; assay type: ADME, cell-free
[16] = Ratio of drug uptake in rat brain to plasma at 3 mg/kg, po measured after 24 hrs; assay type: ADME, organism-based; conditions: read-out: BPR
Rattus norvegicus [17] = assay: Elevation of O-protein in rat brain at 10 mg/kg, po measured after 24 hrs; assay type: functional
Rattus norvegicus [18] = assay: Elevation of O-protein in rat brain at 3 mg/kg, po measured after 24 hrs relative to control; assay type: functional
[19] = Half life in Wistar Han rat at 2 mg/kg, iv; assay type: ADME, organism-based; conditions: in vivo
[20] = Clearance in Wistar Han rat at 2 mg/kg, iv; assay type: ADME, organism-based; conditions: in vivo
[21] = biological target: Voltage-gated inwardly rectifying potassium channel KCNH2 (Homo sapiens, UniProt Q12809); assay: Displacement of MK-0499 from human ERG
[22] = biological target: Sodium channel protein type 5 subunit alpha (Homo sapiens, UniProt Q14524); assay: Inhibition of Nav1.5 (unknown origin)
Cytochrome P450 3A4 = Cytochrome P450 3A4 (Homo sapiens, UniProt P08684); assay: Inhibition of CYP3A4 (unknown origin); assay type: ADME
Cytochrome P450 2D6 = Cytochrome P450 2D6 (Homo sapiens, UniProt P10635); assay: Inhibition of CYP2D6 (unknown origin); assay type: ADME
Cytochrome P450 2C9 = Cytochrome P450 2C9 (Homo sapiens, UniProt P11712); assay: Inhibition of CYP2C9 (unknown origin); assay type: ADME
[23] = biological target: Voltage-dependent L-type calcium channel subunit alpha-1C (Homo sapiens, UniProt Q13936); assay: Inhibition of Cav1.2 (unknown origin)
[24] = biological target: T4, Nuclear receptor subfamily 1 group I member 2 (Homo sapiens, UniProt O75469); assay: Activation of PXR (unknown origin) assessed as CYP3A4 induction
T4 sequence (O75469 whole entry): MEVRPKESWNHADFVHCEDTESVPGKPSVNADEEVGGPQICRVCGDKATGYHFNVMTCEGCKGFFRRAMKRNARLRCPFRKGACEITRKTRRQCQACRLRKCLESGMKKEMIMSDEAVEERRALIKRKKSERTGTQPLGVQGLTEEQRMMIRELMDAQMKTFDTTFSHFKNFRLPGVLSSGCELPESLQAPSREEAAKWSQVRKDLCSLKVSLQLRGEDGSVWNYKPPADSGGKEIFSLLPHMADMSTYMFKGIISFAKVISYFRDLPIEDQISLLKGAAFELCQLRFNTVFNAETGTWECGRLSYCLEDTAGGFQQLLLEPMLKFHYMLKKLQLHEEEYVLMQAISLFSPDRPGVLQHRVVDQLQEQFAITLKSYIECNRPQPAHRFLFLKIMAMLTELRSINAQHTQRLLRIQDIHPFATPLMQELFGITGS

Sodium channel protein type 5 subunit alpha, sequence (Q14524 whole entry): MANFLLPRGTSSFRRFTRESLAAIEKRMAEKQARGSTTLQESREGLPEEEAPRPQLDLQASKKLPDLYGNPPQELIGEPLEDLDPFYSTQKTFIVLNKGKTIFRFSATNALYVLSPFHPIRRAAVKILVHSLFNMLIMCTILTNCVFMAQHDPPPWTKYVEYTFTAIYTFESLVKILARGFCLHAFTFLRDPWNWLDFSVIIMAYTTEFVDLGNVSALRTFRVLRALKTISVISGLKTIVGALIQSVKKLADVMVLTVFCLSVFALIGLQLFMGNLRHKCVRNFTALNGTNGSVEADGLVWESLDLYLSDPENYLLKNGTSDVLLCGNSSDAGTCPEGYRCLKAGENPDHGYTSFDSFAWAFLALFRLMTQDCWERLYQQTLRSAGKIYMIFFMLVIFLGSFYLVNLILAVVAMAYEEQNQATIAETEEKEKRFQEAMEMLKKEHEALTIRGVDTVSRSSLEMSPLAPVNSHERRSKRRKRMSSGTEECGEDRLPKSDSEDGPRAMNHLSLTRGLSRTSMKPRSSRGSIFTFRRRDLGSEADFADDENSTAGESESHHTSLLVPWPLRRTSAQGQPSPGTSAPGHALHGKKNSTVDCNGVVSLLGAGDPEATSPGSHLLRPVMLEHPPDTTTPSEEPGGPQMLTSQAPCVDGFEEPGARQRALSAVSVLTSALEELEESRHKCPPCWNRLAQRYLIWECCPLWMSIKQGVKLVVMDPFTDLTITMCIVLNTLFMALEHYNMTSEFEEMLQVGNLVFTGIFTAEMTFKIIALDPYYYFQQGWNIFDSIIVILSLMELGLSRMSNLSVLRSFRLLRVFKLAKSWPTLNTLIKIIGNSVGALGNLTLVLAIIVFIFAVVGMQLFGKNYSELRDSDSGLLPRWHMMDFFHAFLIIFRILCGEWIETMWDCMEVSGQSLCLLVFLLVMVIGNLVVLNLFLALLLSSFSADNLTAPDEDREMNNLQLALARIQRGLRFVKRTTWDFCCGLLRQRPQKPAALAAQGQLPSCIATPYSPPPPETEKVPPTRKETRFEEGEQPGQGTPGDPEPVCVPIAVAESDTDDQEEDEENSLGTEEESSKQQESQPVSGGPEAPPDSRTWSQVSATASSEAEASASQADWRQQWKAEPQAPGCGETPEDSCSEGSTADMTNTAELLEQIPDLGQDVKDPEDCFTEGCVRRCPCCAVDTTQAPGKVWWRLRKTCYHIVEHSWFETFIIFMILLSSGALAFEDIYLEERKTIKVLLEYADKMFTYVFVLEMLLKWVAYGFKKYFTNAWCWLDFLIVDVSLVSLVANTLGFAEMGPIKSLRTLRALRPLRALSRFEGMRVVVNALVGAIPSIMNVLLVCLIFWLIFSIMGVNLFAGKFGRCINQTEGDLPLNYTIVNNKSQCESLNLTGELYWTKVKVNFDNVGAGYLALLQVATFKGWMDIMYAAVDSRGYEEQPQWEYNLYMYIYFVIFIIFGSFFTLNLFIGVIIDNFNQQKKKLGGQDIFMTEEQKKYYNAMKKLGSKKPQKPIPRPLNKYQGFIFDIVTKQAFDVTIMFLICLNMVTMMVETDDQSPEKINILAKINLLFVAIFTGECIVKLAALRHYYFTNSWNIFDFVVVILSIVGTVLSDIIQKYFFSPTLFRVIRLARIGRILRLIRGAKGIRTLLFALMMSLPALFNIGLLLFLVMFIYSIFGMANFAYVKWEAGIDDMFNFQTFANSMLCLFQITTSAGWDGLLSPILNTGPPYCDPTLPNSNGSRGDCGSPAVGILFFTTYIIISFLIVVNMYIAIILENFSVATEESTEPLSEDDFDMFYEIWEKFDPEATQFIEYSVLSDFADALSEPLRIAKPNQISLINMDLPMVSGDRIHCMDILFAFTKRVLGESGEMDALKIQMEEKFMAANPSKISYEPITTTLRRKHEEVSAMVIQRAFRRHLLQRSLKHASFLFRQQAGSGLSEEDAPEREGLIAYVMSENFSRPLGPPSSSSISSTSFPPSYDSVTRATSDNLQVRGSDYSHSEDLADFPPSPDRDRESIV
Cytochrome P450 2D6, sequence (P10635 whole entry): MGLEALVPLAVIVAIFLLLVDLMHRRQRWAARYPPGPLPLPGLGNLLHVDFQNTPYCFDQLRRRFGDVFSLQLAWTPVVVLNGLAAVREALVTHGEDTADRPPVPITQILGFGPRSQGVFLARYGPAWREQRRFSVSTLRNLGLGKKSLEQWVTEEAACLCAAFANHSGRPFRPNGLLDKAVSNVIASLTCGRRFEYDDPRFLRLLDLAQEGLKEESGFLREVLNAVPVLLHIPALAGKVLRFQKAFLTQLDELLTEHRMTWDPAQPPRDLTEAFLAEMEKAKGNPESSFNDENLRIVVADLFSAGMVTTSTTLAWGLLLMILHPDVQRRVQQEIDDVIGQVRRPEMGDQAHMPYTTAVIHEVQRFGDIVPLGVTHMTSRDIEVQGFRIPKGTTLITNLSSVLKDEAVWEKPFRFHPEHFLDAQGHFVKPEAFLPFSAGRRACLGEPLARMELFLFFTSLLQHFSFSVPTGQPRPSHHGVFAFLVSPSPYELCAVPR
Voltage-gated inwardly rectifying potassium channel KCNH2, sequence (Q12809 whole entry): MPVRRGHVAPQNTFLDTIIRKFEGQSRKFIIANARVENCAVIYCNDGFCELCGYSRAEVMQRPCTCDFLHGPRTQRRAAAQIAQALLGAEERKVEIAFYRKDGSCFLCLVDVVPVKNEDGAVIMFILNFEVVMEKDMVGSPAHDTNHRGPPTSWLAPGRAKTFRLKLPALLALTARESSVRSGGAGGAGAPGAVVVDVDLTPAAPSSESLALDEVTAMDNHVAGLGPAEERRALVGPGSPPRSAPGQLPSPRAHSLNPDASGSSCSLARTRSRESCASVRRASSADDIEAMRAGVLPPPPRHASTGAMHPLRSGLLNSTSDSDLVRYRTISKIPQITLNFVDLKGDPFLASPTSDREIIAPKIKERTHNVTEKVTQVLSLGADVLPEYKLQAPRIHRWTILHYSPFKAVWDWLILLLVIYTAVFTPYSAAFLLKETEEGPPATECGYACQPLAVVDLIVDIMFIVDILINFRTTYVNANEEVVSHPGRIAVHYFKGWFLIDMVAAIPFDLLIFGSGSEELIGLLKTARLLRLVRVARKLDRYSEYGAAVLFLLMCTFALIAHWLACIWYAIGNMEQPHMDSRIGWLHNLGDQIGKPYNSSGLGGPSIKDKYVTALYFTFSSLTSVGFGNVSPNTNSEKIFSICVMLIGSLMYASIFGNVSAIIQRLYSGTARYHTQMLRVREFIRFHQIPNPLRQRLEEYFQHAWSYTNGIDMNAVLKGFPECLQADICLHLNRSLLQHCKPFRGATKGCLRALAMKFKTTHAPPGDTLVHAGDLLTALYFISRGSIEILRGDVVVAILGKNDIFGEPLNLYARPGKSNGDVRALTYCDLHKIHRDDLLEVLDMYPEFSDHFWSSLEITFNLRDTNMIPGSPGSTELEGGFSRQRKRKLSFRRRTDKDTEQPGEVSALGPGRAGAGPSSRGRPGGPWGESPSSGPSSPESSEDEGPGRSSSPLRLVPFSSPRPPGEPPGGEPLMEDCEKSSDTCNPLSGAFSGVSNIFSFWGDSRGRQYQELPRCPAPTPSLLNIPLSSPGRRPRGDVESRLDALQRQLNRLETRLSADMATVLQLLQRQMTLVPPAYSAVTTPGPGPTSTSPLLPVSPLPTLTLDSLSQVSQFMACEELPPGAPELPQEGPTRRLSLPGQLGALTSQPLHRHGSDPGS
Cytochrome P450 2C9, sequence (P11712 whole entry): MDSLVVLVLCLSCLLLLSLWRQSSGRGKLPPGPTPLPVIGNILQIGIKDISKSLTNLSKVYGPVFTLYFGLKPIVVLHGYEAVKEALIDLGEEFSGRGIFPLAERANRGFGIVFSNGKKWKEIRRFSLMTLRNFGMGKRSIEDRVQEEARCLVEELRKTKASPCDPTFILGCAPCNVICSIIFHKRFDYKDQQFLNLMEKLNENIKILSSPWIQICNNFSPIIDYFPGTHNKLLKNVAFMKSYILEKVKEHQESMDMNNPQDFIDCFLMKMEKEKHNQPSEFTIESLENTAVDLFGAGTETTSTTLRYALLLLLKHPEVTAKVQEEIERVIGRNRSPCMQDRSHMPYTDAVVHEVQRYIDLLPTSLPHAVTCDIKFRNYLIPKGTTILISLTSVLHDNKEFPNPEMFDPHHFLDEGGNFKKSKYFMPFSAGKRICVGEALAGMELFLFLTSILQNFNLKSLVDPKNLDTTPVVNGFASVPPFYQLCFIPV
Cytochrome P450 3A4, sequence (P08684 whole entry): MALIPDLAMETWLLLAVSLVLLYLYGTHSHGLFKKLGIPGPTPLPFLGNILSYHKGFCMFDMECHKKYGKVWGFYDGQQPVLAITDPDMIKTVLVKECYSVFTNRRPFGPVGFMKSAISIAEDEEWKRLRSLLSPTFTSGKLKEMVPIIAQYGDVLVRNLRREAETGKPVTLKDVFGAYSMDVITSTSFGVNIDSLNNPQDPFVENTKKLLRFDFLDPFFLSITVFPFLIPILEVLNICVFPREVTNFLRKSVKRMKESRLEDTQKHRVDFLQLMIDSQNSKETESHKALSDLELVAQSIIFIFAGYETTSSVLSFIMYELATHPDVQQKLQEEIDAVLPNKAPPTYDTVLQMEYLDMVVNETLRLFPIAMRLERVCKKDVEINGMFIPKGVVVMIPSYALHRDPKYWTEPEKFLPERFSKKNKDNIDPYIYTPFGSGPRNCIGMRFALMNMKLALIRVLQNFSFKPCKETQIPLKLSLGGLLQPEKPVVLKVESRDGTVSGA

| SMILES | bioavailability [1] [%] | Ki (Protein O-GlcNAcase [2]) [µM] | Ki [3] [µM] | Drug uptake [4] [nmol/g] | AUC/dose [5] [µM·kg·h/mg] | EC50 (Protein O-GlcNAcase [6]) [µM] | Kp at 8 h [7] | Drug uptake [8] [nmol/g] | AUC [9] [nM·h/g] | Papp (MDR1) [×10⁻⁶ cm/s] | Vd [10] [L/kg] | fold change (FC) (Rattus norvegicus [11]) | fraction unbound at 2.5 µM [12] | fold change (FC) (Rattus norvegicus [13]) | Tmax [14] [h] | fraction unbound at 2.5 µM [15] | Kp at 24 h [16] | fold change (FC) (Rattus norvegicus [17]) | half-life [19] [h] | clearance [20] [mL/min/kg] | other results |
| --- | --- | --- | --- | --- | --- | --- | --- | --- | --- | --- | --- | --- | --- | --- | --- | --- | --- | --- | --- | --- | --- |
| CN(C)C1=N[C@@H]2[C@@H](O)[C@H](O)[C@@H](C(F)F)O[C@@H]2S1 | 49.7 | 0.0024 | 3.9 | 0.147 | 0.43 | 0.0312 | 1.56 | 0.049 | 4.89 | 14 | 10.3 | 2.53 | > 0.99 | 34.18 | 12 | 0.95 | 3.03 | 2.83 | 3.81 | 70.5 | fold change (FC) (Rattus norvegicus [18]): 2.57 |
| CNC1=N[C@@H]2C[C@H](O)[C@@H](C(F)F)O[C@@H]2S1 | 74.7 |  | > 10 | 0.289 | 1.9 |  | 2.22 |  | 53.87 | 24 | 2.23 | 1.8 | > 0.99 | 19.68 | 8 | 0.88 |  | 2.69 | 1.66 | 30.4 |  |
| CCNC1=N[C@@H]2[C@@H](O)[C@H](O)[C@@H](CF)O[C@@H]2S1 | 102 | 0.02 |  | 0.228 | 1.77 | 0.176 | 1.49 | 0.047 |  | 6.1 | 3.8 | 1.84 | 0.87 |  |  | 0.98 | ≥ 18.7 |  | 2.39 | 37.4 | IC50 [21]: > 30 µM; IC50 [22]: > 30 µM; IC50 (Cytochrome P450 3A4): > 50 µM; IC50 (Cytochrome P450 2D6): > 50 µM; IC50 (Cytochrome P450 2C9): > 50 µM; fold change (FC) (Rattus norvegicus [18]): 1.74; IC50 [23]: > 30 µM; EC50 [24]: > 30 µM |
| CNC1=N[C@@H]2[C@H](F)[C@H](O)[C@@H](C(F)F)O[C@@H]2S1 | 90.4 | 0.023 | > 10 | 0.142 | 4.27 | 0.0582 | 0.189 |  | 35.91 | 20 | 2.96 | 2.51 | 0.97 | 11.69 | 8 | 0.93 |  | 2.04 | 4.29 | 11.4 |  |
